Test results as given in ChEMBL document CHEMBL1201862, “PubChem BioAssay data set” (2004).
Activity calls are given as the source filed them.

Tests used:
[1] = rise of 2N DNA cells, HeLa – IC50, dose response (AID 1117349); assay type: functional, cell-based
[2] = rise of 4N DNA cells, HeLa – IC50, dose response (AID 1117351); assay type: functional, cell-based
[3] = growth inhibition of MALME3 cells – cell-based, CellTiter-Glo luminescence, dry powder, set 5, orthogonal assay for MITF inhibitor project, dose response (AID 651584); assay type: functional; conditions: MALME-3
[4] = MITF Orthogonal Assay: MALME3 CTG Assay Measured in Cell-Based System Using Plate Reader - 2084-04_Inhibitor_Dose_DryPowder_Activity_Set6.; assay type: functional; conditions: MALME-3
[5] = inhibitors of TRPM1-promoter reporter in SK-MEL-5 – cell-based, luciferase, dry powder, set 9, MITF inhibitor project, dose response (AID 651588); assay type: functional
[6] = growth inhibition of SK-MEL-5 melanoma cells – cell-based, CellTiter-Glo luminescence, dry powder, set 8, orthogonal assay for MITF inhibitor project, dose response (AID 651586); assay type: functional
[7] = MITF Orthogonal Assay: SK-MEL-5 CTG Assay Measured in Cell-Based System Using Plate Reader - 2084-02_Inhibitor_Dose_DryPowder_Activity_Set7.; assay type: functional
[8] = inhibitors of TRPM1-promoter reporter in SK-MEL-5 – cell-based, luciferase, dry powder, set 8, MITF inhibitor project, dose response (AID 624430); assay type: functional
[9] = cytotoxicity in MITF-independent A375 cells – cell-based, CellTiter-Glo luminescence, dry powder, set 9, counter-screen for MITF modulator project, dose response (AID 651591); assay type: functional; conditions: A-375
[10] = MITF: Counter assay: A375 proliferation Measured in Cell-Based System Using Plate Reader - 2084-03_Inhibitor_Dose_DryPowder_Activity_Set8.; assay type: functional; conditions: A-375
[11] = molecular target: T1, Oxysterols receptor LXR-beta (Homo sapiens, UniProt P55055); assay type: functional, cell-based;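 note: Cell-based luminescence dose-response assay of agonist activity at LXR, run as a confirmatory counterscreen to a daf-12 agonist screen; agonist potency from rising luciferase signal of a Gal4-LXR reporter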
T1 sequence (P55055 whole entry): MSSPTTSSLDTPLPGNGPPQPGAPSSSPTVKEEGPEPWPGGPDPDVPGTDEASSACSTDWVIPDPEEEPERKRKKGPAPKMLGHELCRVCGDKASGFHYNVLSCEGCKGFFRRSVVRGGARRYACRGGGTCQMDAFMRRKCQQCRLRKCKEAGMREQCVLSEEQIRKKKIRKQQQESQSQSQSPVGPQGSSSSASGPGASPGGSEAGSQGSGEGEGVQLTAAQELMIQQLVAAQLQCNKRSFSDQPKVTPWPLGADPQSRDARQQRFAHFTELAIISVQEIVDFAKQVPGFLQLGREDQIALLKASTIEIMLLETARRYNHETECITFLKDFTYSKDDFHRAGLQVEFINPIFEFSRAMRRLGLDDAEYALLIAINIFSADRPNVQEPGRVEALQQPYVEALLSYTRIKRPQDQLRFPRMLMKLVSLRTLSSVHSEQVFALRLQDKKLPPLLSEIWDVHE

[12] = molecular target: T1, Oxysterols receptor LXR-beta; assay: LXR agonists, Gal4 luciferase reporter, dose response, counter-screen for ssDAF-12 agonist project, cell-based, luminescence, HEK293, S. stercoralis campaign (AID 720737); assay type: functional; conditions: read-out: IC50 (the source's name)
[13] = molecular target: Protein-tyrosine kinase 2-beta (Homo sapiens, UniProt Q14289);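 note: potency of inhibitors of PYK2 kinase phosphorylation of poly-GT substrate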
[14] = Luminescence-based cell-based high throughput dose response assay to identify activators of the DAF-12 from the parasite S. stercoralis (ssDAF-12).; assay type: functional
[15] = molecular target: Luciferin 4-monooxygenase (Photinus pyralis, UniProt P08659); assay: Counter Screen for Luciferase-based Assay Positives. [Related pubchem assays: 620, 618, 411 ]
HT-1080 = assay: HT1080 cell viability loss – fluorescence readout (AID 620); assay type: functional, cell-based; conditions: Homo sapiens
Estrogen receptor = molecular target: T2, Estrogen receptor (Homo sapiens, UniProt P03372); assay: ERα coactivator recruitment enhancers – biochemical, TR-FRET, ERα LBD, dose response (AID 737)
T2 sequence (P03372 whole entry): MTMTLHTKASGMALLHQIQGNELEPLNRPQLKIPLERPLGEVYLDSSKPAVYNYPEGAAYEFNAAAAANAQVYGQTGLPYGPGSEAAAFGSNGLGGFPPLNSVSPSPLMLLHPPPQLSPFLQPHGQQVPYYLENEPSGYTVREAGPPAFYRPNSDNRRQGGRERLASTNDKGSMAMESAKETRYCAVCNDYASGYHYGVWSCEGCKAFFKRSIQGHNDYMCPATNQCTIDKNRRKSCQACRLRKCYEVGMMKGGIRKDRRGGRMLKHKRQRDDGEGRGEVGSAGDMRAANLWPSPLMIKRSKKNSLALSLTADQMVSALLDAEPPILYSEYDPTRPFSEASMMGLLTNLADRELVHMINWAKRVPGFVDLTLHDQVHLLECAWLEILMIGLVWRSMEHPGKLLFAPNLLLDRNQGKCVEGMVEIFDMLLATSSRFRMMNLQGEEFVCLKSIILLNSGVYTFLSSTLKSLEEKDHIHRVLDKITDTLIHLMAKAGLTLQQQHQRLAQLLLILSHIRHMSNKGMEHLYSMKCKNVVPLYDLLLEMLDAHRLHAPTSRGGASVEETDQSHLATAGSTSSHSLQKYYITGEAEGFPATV

[16] = Dd2 parasite growth inhibition in erythrocytes – SYBR Green, dry powder samples, set 4, dose response (AID 1159572); assay type: functional, cell-based
[17] = molecular target: Metabotropic glutamate receptor 7 (Homo sapiens, UniProt Q14831); assay: potentiation of glutamate EC20 at mGlu7 – cell-based, calcium mobilization, Galpha15, dose response (AID 743384); assay type: functional
Sequence of Metabotropic glutamate receptor 7 (Q14831 whole entry): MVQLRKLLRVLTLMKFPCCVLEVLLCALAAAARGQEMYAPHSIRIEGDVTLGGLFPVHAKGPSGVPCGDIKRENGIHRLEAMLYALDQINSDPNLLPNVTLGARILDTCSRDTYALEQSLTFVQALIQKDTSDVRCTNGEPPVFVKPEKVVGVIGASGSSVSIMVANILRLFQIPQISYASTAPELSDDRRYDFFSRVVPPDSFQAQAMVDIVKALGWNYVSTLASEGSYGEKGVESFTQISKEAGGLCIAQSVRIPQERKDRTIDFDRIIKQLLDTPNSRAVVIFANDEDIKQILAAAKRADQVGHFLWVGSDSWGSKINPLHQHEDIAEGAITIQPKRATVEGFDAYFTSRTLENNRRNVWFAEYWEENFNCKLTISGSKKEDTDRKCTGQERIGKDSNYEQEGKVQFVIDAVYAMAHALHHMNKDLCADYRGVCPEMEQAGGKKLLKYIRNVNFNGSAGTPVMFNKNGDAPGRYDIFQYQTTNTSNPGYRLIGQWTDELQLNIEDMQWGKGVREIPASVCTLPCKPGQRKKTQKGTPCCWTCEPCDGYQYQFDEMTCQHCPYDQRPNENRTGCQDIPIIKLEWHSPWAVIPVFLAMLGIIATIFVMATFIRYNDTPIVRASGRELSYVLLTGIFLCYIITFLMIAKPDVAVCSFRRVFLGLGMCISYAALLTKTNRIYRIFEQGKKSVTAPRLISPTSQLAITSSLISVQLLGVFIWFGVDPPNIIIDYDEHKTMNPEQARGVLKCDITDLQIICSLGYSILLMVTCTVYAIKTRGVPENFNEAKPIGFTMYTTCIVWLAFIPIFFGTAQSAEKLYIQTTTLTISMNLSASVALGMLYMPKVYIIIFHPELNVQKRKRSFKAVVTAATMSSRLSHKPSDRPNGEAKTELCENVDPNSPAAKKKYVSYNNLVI

Sequence of Protein-tyrosine kinase 2-beta (Q14289 whole entry): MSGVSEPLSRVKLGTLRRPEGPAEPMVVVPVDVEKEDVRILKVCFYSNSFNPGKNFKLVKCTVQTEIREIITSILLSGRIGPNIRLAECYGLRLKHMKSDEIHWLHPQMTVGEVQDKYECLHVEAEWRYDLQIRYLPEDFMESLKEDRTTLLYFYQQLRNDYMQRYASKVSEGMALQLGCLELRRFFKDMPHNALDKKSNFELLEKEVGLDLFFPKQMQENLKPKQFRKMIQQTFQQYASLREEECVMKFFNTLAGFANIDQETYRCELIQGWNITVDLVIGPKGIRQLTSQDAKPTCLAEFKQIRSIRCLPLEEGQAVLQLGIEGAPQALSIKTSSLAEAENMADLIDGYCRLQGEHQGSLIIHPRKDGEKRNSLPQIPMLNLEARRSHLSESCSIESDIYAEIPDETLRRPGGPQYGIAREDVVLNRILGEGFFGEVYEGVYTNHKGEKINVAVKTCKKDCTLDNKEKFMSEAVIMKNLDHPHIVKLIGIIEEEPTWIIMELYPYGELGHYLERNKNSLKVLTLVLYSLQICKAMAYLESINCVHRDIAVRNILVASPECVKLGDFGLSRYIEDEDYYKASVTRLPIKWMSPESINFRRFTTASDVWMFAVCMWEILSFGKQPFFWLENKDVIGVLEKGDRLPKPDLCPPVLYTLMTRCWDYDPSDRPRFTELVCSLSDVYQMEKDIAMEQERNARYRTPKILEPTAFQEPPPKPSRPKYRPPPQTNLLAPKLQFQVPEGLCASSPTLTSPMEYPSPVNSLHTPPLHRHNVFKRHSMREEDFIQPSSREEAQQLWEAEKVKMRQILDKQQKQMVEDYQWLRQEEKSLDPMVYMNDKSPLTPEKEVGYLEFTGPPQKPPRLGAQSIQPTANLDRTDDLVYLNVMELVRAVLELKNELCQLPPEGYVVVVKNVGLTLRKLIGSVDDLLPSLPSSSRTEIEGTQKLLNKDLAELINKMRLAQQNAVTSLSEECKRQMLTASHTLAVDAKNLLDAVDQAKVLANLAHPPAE
Sequence of Luciferin 4-monooxygenase (P08659 whole entry): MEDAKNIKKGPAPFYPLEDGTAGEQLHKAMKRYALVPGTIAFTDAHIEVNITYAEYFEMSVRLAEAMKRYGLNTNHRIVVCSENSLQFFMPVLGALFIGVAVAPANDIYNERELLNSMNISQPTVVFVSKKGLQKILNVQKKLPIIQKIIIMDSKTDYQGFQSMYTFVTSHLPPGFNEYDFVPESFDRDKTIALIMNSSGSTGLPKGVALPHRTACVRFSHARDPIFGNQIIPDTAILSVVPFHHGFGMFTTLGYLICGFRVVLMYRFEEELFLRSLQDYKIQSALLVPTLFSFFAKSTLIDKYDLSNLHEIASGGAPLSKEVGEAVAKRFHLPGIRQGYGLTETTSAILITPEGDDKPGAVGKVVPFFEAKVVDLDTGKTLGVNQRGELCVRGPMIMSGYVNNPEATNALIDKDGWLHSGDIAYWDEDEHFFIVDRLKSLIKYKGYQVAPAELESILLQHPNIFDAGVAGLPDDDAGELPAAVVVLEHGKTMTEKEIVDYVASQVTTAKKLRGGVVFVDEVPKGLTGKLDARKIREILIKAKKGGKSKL

With `CC(C)(C)C(=O)OCOP(=O)(COCCn1cnc2c(N)ncnc21)OCOC(=O)C(C)(C)C` [ADEFOVIR DIPIVOXIL] the IC50 [1] was > 10 µM (inactive) and the IC50 [2] was > 10 µM (inactive).
In the case of `O=C1C(Nc2cccc(Cl)c2)=C(N2CCCC2)C(=O)c2ccccc21`, the AC50 [3] is reported as > 70 µM (inactive), the AC50 [4] is reported as > 70 µM (inactive) and the AC50 [5] is reported as 46.8 µM (active). The AC50 [6] was > 70 µM (inactive), the AC50 [7] was 5.52 µM (active) and the AC50 [8] was 8.39 µM (active). For the same compound, the AC50 [9] was > 70 µM (inactive) and the AC50 [10] was > 70 µM (inactive).
For `O=C1C(c2ccnc3ccccc23)=C(O)c2ccccc21`, the EC50 [11] was > 67.5 µM (inactive), the EC50 [12] was > 67.5 µM (inactive) and the IC50 [13] was 3.11 µM (active). For the same compound, the IC50 [14] was > 67.5 µM (inactive), the EC50 (cells) was > 67.5 µM (inactive) and the EC50 [15] was 0.78 µM (active). The EC50 (HT-1080) was > 50 µM (not active) and the EC50 (Estrogen receptor) was 6.74 µM (active).
For `COc1ccc2c3c([nH]c2c1)[C@H](CO)N(C(C)=O)CC31CCN(C(C)=O)CC1`, the AC50 [16] was 16.5 µM (active).
With `CC(=O)Nc1ccc(SCC(=O)c2cc(C)n(-c3ccc(S(N)(=O)=O)cc3)c2C)cc1` the EC50 [17] was 10 µM (active).
